From patent US20230183215A1, “Notch Inhibitors and Uses Thereof” (StemSynergy Therapeutics, Inc., priority 2020, published 2023)
Counter-ions that a name gives are not always drawn.

What was measured:
[1] = tested on: OE33 Esophageal Adenocarcinoma cell line; experiment: OE33 Colony Formation Assay; assay type: cell-based; details: Homo sapiens, 200 cells/well, compound every 48 hours for 7 days, CellTiter-Glo
Procedure: OE33 Colony Formation Assay:
The OE33 Esophageal Adenocarcinoma cell line was cultured and plated into 96-well tissue culture plates under sparse conditions (200 cells/well). Test compounds were serially diluted in DMSO and then into culture media (final DMSO concentration=0.1%). Compound/media was then added to cells every 48 hours for a total of 7 days. Clonogenic growth was assessed using the CellTiter-Glo reagent, according to manufacturer (Promega) specifications. Percent inhibition was calculated as the percent of luminescence normalized to control (0.1% DMSO) wells. Nonlinear regression curve fitting was performed using GraphPad Prism software to determine EC50's.

Notch1 = molecular target: T1, Notch1 (Homo sapiens, UniProt P46531); experiment: Notch1 Reporter Assay (CSL-responsive luciferase, doxycycline-induced Notch-ICD in 293A cells); assay type: cell-based; details: 25 ng/mL Dox, 24 h, luciferase normalized to cell viability
T1 construct: pLV[Tet]-Puro-TRE3G>Notch1-ICD; expressed in transfected cells; host or cells: 293A cells
T1 sequence (P46531 1754-2555 limits assumed): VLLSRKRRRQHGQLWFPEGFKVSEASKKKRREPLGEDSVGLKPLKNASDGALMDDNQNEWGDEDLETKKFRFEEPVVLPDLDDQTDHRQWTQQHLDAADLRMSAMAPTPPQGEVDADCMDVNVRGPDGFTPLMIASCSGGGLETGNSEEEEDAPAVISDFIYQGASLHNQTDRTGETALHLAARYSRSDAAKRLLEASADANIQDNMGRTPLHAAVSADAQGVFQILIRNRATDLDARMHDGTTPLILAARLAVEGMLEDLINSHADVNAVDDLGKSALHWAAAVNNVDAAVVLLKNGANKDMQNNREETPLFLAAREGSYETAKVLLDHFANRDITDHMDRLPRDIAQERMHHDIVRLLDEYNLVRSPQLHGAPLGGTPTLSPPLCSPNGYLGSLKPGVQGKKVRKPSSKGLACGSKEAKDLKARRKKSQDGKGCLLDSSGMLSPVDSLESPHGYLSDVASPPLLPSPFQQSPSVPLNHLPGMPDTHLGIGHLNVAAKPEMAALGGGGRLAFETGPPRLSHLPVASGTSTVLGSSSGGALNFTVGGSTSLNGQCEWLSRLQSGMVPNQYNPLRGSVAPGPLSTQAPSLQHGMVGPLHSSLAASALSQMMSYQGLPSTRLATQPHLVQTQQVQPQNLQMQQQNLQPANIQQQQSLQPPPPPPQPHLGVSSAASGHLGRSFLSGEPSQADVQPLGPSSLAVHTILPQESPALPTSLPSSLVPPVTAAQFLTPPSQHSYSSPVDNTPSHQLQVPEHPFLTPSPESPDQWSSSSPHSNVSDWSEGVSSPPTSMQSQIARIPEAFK
Procedure: 293A cells expressing 1) pCMV-Tet-On 3G, 2) pLV[Tet]-Puro-TRE3G>Notch1-ICD, 3) pLV[Tet]-Puro-TRE3G>Notch2-ICD, 4) pLV[Tet]-Puro-TRE3G>Notch3-ICD, and 5) pCSL-RElement-Luc were used. When Doxycycline is added, the Tet-ON gene activates expression of hNotch1ICD, which together with endogenous NTC components binds to CSL responsive elements (pCSL-RElement-Luc) and expresses luciferase. 1×10^4 cells are plated in 100 μL (96-well format). 24 h later, compounds (10 mM stock in DMSO) are diluted in DMSO to 200×, then added (5 ul into 1 mL) to cell culture media containing 50 ng/mL Dox. This is then added 1:1 to cells. Final DMSO=0.25%, Dox=25 ng/mL. After 24 h, media is discarded, and cells are lysed in passive lysis buffer (Promega). Cells are rocked at room temperature for 15 min and then lysate is divided for luciferase assay (Luciferase Assay System, Promega) and cell viability (CellTiter Glo 2.0, Promega). Raw luciferase is normalized to cell viability, and then scaled to DMSO wells. Results are analyzed and IC50's are determined in GraphPad by nonlinear regression curve fitting (4 parameter) of dose response curves.

| SMILES | EC50 [1] [µM] | IC50 (Notch1) [µM] |
| --- | --- | --- |
| COc1ccccc1NC(=O)Cn1c(=O)n(C)c2c(-c3cc(F)c(OCc4nnc[nH]4)c(OC)c3)cc(C(F)(F)F)cc21 [SSTN-493, 2-(4-(4-((4H-1,2,4-triazol-3-yl)methoxy)-3-fluoro-5-methoxyphenyl)-3-methyl-2-oxo-6-(trifluoromethyl)-2,3-dihydro-1H-benzo[d]imidazol-1-yl)-N-(2-methoxyphenyl)acetamide hydrochloride] | 2.4 | 8.5 |
| COCc1cccc(NC(=O)Cn2c(=O)n(C)c3c(-c4cc(F)c(OCc5nnc[nH]5)c(OC)c4)cc(C(F)(F)F)cc32)c1 [SSTN-548, 2-(4-(4-((4H-1,2,4-triazol-3-yl)methoxy)-3-fluoro-5-methoxyphenyl)-3-methyl-2-oxo-6-(trifluoromethyl)-2,3-dihydro-1H-benzo[d]imidazol-1-yl)-N-(3-(methoxymethyl)phenyl)acetamide] | 2.3 | 8.7 |
| COc1cc(-c2cc(Cl)cc3c2n(C)c(=O)n3CC(=O)Nc2ccc(F)cc2)cc(F)c1OCc1nnc[nH]1 [SSTN-601, 2-(4-(4-((4H-1,2,4-triazol-3-yl)methoxy)-3-fluoro-5-methoxyphenyl)-6-chloro-3-methyl-2-oxo-2,3-dihydro-1H-benzo[d]imidazol-1-yl)-N-(4-fluorophenyl)acetamide] | 7.1 | 10.2 |
| COc1cc(-c2cc(C(F)(F)F)cc3c2n(C)c(=O)n3CC(=O)N(C)c2cccc(Cl)c2)cc(F)c1OCc1nnc[nH]1 [compound 448, 2-(4-(4-((4H-1,2,4-triazol-3-yl)methoxy)-3-fluoro-5-methoxyphenyl)-3-methyl-2-oxo-6-(trifluoromethyl)-2,3-dihydro-1H-benzo[d]imidazol-1-yl)-N-(3-chlorophenyl)-N-methylacetamide hydrochloride] | 2.1 | 2.4 |
| COc1cc(-c2cc(C(F)(F)F)cc3c2n(C)c(=O)n3CC(=O)Nc2cccc(N3CCOCC3)c2)cc(F)c1OCc1nnc[nH]1 [SSTN-558, 2-(4-(4-((4H-1,2,4-triazol-3-yl)methoxy)-3-fluoro-5-methoxyphenyl)-3-methyl-2-oxo-6-(trifluoromethyl)-2,3-dihydro-1H-benzo[d]imidazol-1-yl)-N-(3-morpholinophenyl)acetamide] | 4.7 | 9.4 |
| COc1cc(-c2cc(C(F)(F)F)cc3c2n(C)c(=O)n3CC(=O)Nc2ccc(SC)cc2)cc(F)c1OCc1nnc[nH]1 [SSTN-498, 2-(4-(4-((4H-1,2,4-triazol-3-yl)methoxy)-3-fluoro-5-methoxyphenyl)-3-methyl-2-oxo-6-(trifluoromethyl)-2,3-dihydro-1H-benzo[d]imidazol-1-yl)-N-(4-(methylthio)phenyl)acetamide hydrochloride] | 3 | 8.5 |
| COc1cc(-c2cc(C(F)(F)F)cc3c2n(C)c(=O)n3CC(=O)Nc2cccc(-c3ccccc3)c2)cc(F)c1OCc1nnc[nH]1 [SSTN-546, 2-(4-(4-((4H-1,2,4-triazol-3-yl)methoxy)-3-fluoro-5-methoxyphenyl)-3-methyl-2-oxo-6-(trifluoromethyl)-2,3-dihydro-1H-benzo[d]imidazol-1-yl)-N-([1,1′-biphenyl]-3-yl)acetamide] | 3.6 | 4.2 |
| COc1cc(-c2cc(C(F)(F)F)cc3c2n(C)c(=O)n3CC(=O)Nc2ccc(F)cc2)cc(F)c1OCc1nnc[nH]1 [compound 465, 2-(4-(4-((4H-1,2,4-triazol-3-yl)methoxy)-3-fluoro-5-methoxyphenyl)-3-methyl-2-oxo-6-(trifluoromethyl)-2,3-dihydro-1H-benzo[d]imidazol-1-yl)-N-(4-fluorophenyl)acetamide hydrochloride] | 5.2 | 8.6 |
| COc1cc(-c2cc(C(F)(F)F)cc3c2n(C)c(=O)n3CC(=O)Nc2ccc(Cl)cc2)cc(F)c1OCc1nnc[nH]1 [SSTN-489, 2-(4-(4-((4H-1,2,4-triazol-3-yl)methoxy)-3-fluoro-5-methoxyphenyl)-3-methyl-2-oxo-6-(trifluoromethyl)-2,3-dihydro-1H-benzo[d]imidazol-1-yl)-N-(4-chlorophenyl)acetamide hydrochloride] | 2.1 | 7.9 |
| COc1cc(-c2cc(C(F)(F)F)cc3c2n(C)c(=O)n3CC(=O)Nc2ccc(SC)cc2F)cc(F)c1OCc1nnc[nH]1 [SSTN-500, 2-(4-(4-((4H-1,2,4-triazol-3-yl)methoxy)-3-fluoro-5-methoxyphenyl)-3-methyl-2-oxo-6-(trifluoromethyl)-2,3-dihydro-1H-benzo[d]imidazol-1-yl)-N-(2-fluoro-4-(methylthio)phenyl)acetamide hydrochloride] | 2.7 | 7.4 |
| COc1cc(-c2cc(OC(F)(F)F)cc3c2n(C)c(=O)n3CC(=O)Nc2ccc(F)cc2)cc(F)c1OCc1nnc[nH]1 [SSTN-600, 2-(4-(4-((4H-1,2,4-triazol-3-yl)methoxy)-3-fluoro-5-methoxyphenyl)-3-methyl-2-oxo-6-(trifluoromethoxy)-2,3-dihydro-1H-benzo[d]imidazol-1-yl)-N-(4-fluorophenyl)acetamide hydrochloride salt] | 6.6 | 5.8 |
| COc1cc(-c2cc(C(F)(F)F)cc3c2n(C)c(=O)n3CC(=O)N(C)c2ccc(Cl)cc2)cc(F)c1OCc1nnc[nH]1 [compound 424, 2-(4-(4-((4H-1,2,4-triazol-3-yl)methoxy)-3-fluoro-5-methoxyphenyl)-3-methyl-2-oxo-6-(trifluoromethyl)-2,3-dihydro-1H-benzo[d]imidazol-1-yl)-N-(4-chlorophenyl)-N-methylacetamide hydrochloride] | 1.4 | 3.6 |
| COc1cc(-c2cc(C(F)(F)F)cc3c2n(C)c(=O)n3CC(=O)Nc2ccc(F)cc2)ccc1OCc1nnc[nH]1 [SSTN-598, 2-(4-(4-((4H-1,2,4-triazol-3-yl)methoxy)-3-methoxyphenyl)-3-methyl-2-oxo-6-(trifluoromethyl)-2,3-dihydro-1H-benzo[d]imidazol-1-yl)-N-(4-fluorophenyl)acetamide hydrochloride salt] | 11.6 | 6.4 |
| COc1cc(-c2cc(C(F)(F)F)cc3c2n(C)c(=O)n3CC(=O)Nc2cccc(C(C)(C)C)c2)cc(F)c1OCc1nnc[nH]1 [SSTN-555, 2-(4-(4-((4H-1,2,4-triazol-3-yl)methoxy)-3-fluoro-5-methoxyphenyl)-3-methyl-2-oxo-6-(trifluoromethyl)-2,3-dihydro-1H-benzo[d]imidazol-1-yl)-N-(3-(tert-butyl)phenyl)acetamide] | 1.7 | 4.1 |
| COc1cccc(NC(=O)Cn2c(=O)n(C)c3c(-c4cc(F)c(OCc5nnc[nH]5)c(OC)c4)cc(C(F)(F)F)cc32)c1 [SSTN-492, 2-(4-(4-((4H-1,2,4-triazol-3-yl)methoxy)-3-fluoro-5-methoxyphenyl)-3-methyl-2-oxo-6-(trifluoromethyl)-2,3-dihydro-1H-benzo[d]imidazol-1-yl)-N-(3-methoxyphenyl)acetamide hydrochloride] | 6.6 | 6.3 |
| COc1cc(-c2cc(C(F)(F)F)cc3c2n(C)c(=O)n3CC(=O)Nc2cccc(F)c2)cc(F)c1OCc1nnc[nH]1 [SSTN-496, 2-(4-(4-((4H-1,2,4-triazol-3-yl)methoxy)-3-fluoro-5-methoxyphenyl)-3-methyl-2-oxo-6-(trifluoromethyl)-2,3-dihydro-1H-benzo[d]imidazol-1-yl)-N-(3-fluorophenyl)acetamide hydrochloride] | 3.7 | 6 |
| COc1cc(-c2cc(C(F)(F)F)cc3c2n(C)c(=O)n3CC(=O)Nc2ccc(F)cc2)c(F)cc1OCc1nnc[nH]1 [SSTN-603, 2-(4-(4-((4H-1,2,4-triazol-3-yl)methoxy)-2-fluoro-5-methoxyphenyl)-3-methyl-2-oxo-6-(trifluoromethyl)-2,3-dihydro-1H-benzo[d]imidazol-1-yl)-N-(4-fluorophenyl)acetamide] | 3.8 | 7.4 |
| COc1cc(-c2cc(C(F)(F)F)cc3c2n(C)c(=O)n3CC(=O)Nc2ccc(OC(F)F)cc2)cc(F)c1OCc1nnc[nH]1 [SSTN-497, 2-(4-(4-((4H-1,2,4-triazol-3-yl)methoxy)-3-fluoro-5-methoxyphenyl)-3-methyl-2-oxo-6-(trifluoromethyl)-2,3-dihydro-1H-benzo[d]imidazol-1-yl)-N-(4-(difluoromethoxy)phenyl)acetamide hydrochloride] | 2.9 | 6.9 |
| COc1cc(-c2cc(C(F)(F)F)cc3c2n(C)c(=O)n3CC(=O)Nc2cccc(N3CCN(C)CC3)c2)cc(F)c1OCc1nnc[nH]1 [SSTN-559, 2-(4-(4-((4H-1,2,4-triazol-3-yl)methoxy)-3-fluoro-5-methoxyphenyl)-3-methyl-2-oxo-6-(trifluoromethyl)-2,3-dihydro-1H-benzo[d]imidazol-1-yl)-N-(3-(4-methylpiperazin-1-yl)phenyl)acetamide] | 4.3 | 19.9 |
